# Test results published in patent publication US7135572B2 (CJ Corp, priority 2001, dated 2006).
# Assays:
# cyclooxygenase-1 = target: T1, cyclooxygenase-1 (Homo sapiens, UniProt P23219); test: Inhibition of cyclooxygenase-1 in U-937 cells (PGE2 quantitation); format: cell-based; conditions: for Inhibitory effects of cyclooxygenase (COX): COX-1: U-937 cells
# T1 construct: The cultured U-937 (humane lymphoma cell, obtained from Korean cell line bank) was centrifuged to collect the pellet; endogenous in cells; host or cells: U-937 (human lymphoma cell line, Korean cell line bank)
# Description: (§1) In order to investigate pharmacologically the selective inhibition activity against cyclooxygenase-2 enzyme, the inhibitive effects against cyclooxygenase-1 and cyclooxygenase-2 were measured by two methods as follows.
# Then, the pellet was diluted with 1×HBSS(Hank's balanced salt solutin) at the concentration of 1×10^6 cells/ml, and 1 ml of them was transferred into each well of 12-well plates, and then dissolved with DMSO. 5μl of the diluted sample solution, and 5μl of DMSO vehicle were added therein and mixed, and the mixture was cultured at 37° C. in Co2 incubator for 15 minutes. Arachidonic acid as a substrate was dissolved in ethanol to prepare a stock solution with a concentration of 10 mM, followed by diluting with 1×HBSS to prepare the solution of 1 mM. 10 μl of 1 mM Arachidonic acid solution was added to each of the treated wells, and the mixture was cultured at 37° C. in CO2 incubator for 30 minutes. The cell solution of each well was collected in the centrifuge tube and was centrifuged at 4° C. for 5 minutes at 10,000 rpm. As PGE2 existed in the supernatant separated from collected cell, the concentration of PGE2 was quantitated by using monoclonal kit from Cayman Chemicals, and the concentration of samples and vehicle were compared to estimate the inhibition ratio (%) of each compound against cyclooxygenase-1. Ultimately, the inhibition effect against the cyclooxygenase-1 enzyme was obtained from the result.
# cyclooxygenase-2 = target: T2, cyclooxygenase-2 (Mus musculus, UniProt Q05769); test: Inhibition of cyclooxygenase-2 in Raw 264.7 cells treated with interferon γ and LPS (PGE2 EIA); format: cell-based; conditions: for Inhibitory effects of cyclooxygenase (COX): COX-2: Raw 264.7 cells; for selectivity of cyclooxygenase-2 compared with the comparative substance (in words): COX-2 versus COX-1
# T2 construct: endogenous in cells; host or cells: Raw 264.7 (Korean cell line bank), aspirin-pretreated, induced with interferon gamma and LPS
# T2 sequence (Q05769 18-604): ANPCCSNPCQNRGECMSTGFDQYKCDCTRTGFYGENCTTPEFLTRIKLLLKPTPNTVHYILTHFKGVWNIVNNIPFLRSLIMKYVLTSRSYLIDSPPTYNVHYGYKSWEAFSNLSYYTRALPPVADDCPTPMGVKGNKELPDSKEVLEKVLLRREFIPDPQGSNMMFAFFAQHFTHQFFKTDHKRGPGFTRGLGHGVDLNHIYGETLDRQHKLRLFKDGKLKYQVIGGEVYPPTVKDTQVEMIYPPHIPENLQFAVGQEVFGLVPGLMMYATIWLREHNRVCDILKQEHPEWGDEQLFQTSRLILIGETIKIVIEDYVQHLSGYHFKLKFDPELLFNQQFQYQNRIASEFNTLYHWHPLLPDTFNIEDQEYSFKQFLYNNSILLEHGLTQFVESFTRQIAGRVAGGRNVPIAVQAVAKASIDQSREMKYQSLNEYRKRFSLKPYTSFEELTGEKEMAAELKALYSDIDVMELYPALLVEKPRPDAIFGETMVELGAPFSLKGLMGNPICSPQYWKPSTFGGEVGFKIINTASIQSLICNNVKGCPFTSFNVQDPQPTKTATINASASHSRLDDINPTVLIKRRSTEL
# Description: as §1
# And then, each samples were replaced with new media and cultured for 30 minutes. In addition, the samples was treated with 100 units/ml of interferon Υ and 100 ng/ml of lipopolysaccharide(LPS), and cultured for 18 hours. Then, the media was transferred to other tubes and the PGE 2 was quantitated by using EIA kit from Cayman Chemicals.
# T1 sequence (P23219 24-599): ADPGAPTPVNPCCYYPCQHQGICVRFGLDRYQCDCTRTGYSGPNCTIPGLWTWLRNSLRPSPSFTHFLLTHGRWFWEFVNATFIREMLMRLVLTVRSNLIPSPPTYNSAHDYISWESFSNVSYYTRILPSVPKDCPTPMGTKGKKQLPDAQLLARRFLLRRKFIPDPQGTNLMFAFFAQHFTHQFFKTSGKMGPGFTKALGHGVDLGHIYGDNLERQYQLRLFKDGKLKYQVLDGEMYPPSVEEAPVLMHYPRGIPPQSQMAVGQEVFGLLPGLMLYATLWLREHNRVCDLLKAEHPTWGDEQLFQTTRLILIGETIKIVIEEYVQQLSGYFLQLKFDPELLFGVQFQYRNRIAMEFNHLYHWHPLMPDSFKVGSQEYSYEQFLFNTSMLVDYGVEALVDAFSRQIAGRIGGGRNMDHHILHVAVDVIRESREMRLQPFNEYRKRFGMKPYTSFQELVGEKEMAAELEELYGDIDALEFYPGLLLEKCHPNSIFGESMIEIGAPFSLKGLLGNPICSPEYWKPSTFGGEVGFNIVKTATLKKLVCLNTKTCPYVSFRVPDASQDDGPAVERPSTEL
Structure (SMILES),Inhibitory effects of cyclooxygenase (COX): COX-1 (cyclooxygenase-1; 3 μM) [% inhibition],Inhibitory effects of cyclooxygenase (COX): COX-1 (cyclooxygenase-1; 10 μM) [% inhibition],Inhibitory effects of cyclooxygenase (COX): COX-1 (cyclooxygenase-1; 30 μM) [% inhibition],Inhibitory effects of cyclooxygenase (COX): COX-2 (cyclooxygenase-2; 30 nM) [% inhibition],Inhibitory effects of cyclooxygenase (COX): COX-2 (cyclooxygenase-2; 100 nM) [% inhibition],Inhibitory effects of cyclooxygenase (COX): COX-2 (cyclooxygenase-2; 300 nM) [% inhibition],inhibition effect against cyclooxygenase-1 compared with Celecoxib (in words) (cyclooxygenase-1; same condition as Celecoxib),selectivity of cyclooxygenase-2 compared with the comparative substance (in words) (cyclooxygenase-2),"inhibition effect against cyclooxygenase-2 compared with Celecoxib (in words) (cyclooxygenase-2; low concentration, same condition as Celecoxib)"
"Cc1nc(-c2ccc(Br)cc2)n(-c2ccc(S(N)(=O)=O)cn2)n1 [Example 17, 6-[5-(4-bromo-phenyl)-3-methyl-[1,2,4]triazole-1-yl]-pyridine-3-sulfonic acid amide]",5.6,28.7,32.7,47.8,66.9,78.2,–,–,–
"COc1ccccc1-c1nc(C)nn1-c1ccc(S(N)(=O)=O)cc1 [Example 11, 4-[5-(2-methoxy-phenyl)-3-methyl-[1,2,4]triazole-1-yl]-benzenesulfonamide]",54.0,61.3,67.2,25.0,25.2,37.7,–,–,–
"Cc1nc(-c2ccccc2)n(-c2ccc(S(N)(=O)=O)cn2)n1 [Example 14, 6-(3-methyl-5-phenyl-[1,2,4]triazole-1-yl)-pyridine-3-sulfonic acid amide]",12.8,20.4,28.9,72.1,99.8,99.9,much lower level,better than any other substances,more excellent
"Cc1ccc(-c2nc(C)nn2-c2ccc(S(N)(=O)=O)cc2)cc1 [Example 5, 4-(3-methyl-5-p-toly-[1,2,4]triazole-1-yl)-benzenesulfonamide]",48.6,61.1,79.7,45.3,53.3,75.2,–,–,–
"Cc1nc(-c2cccc(Br)c2)n(-c2ccc(S(N)(=O)=O)cc2)n1 [Example 9, 4-[5-(3-bromo-phenyl)-3-methyl-[1,2,4]triazole-1-yl]-benzenesulfonamide]",78.7,81.9,89.5,66.5,89.2,99.2,–,hardly different,–
"Cc1nc(-c2ccc(F)cc2)n(-c2ccc(S(C)(=O)=O)cc2)n1 [Example 26, 5-(4-fluoro-phenyl)-1-(4-methanesulfonyl-phenyl)-3-methyl-1H-[1,2,4]triazole]",42.0,51.2,55.1,20.1,47.7,64.0,–,–,–
"Cc1nc(-c2ccc(Cl)cc2)n(-c2ccc(S(N)(=O)=O)cn2)n1 [Example 16, 6-[5-(4-chloro-phenyl)-3-methyl-[1,2,4]triazole-1-yl]-pyridine-3-sulfonic acid amide]",24.5,43.2,55.1,32.4,34.1,85.2,–,–,–
"Cc1nc(-c2ccccc2)n(-c2ccc(S(C)(=O)=O)cc2)n1 [Example 24, 1-(4-methanesulfony-phenyl)-3-methyl-5-phenyl-1H-[1,2,4]triazole]",1.3,40.8,71.5,29.7,38.0,64.4,–,–,–
"COc1ccc(-c2nc(C)nn2-c2ccc(S(N)(=O)=O)cc2)cc1 [Example 6, 4-[5-(4-methoxy-phenyl)-3-mehtyl-[1,2,4]triazole-1-yl]-benzenesulfonamide]",78.6,85.6,94.5,68.8,99.2,99.9,–,hardly different,–
"Cc1nc(-c2ccc(F)cc2)n(-c2ccc(S(N)(=O)=O)cn2)n1 [Example 15, 6-[5-(4-fluoro-phenyl)-3-methyl-[1,2,4]triazole-1-yl]-pyridine-3-sulfonic acid amide]",35.7,41.0,46.9,27.1,28.8,38.9,–,–,–
"Cc1nc(-c2cccc(F)c2)n(-c2ccc(S(N)(=O)=O)cc2)n1 [Example 7, 4-[5-(3-fluoro-phenyl)-3-methyl-[1,2,4]triazole-1-yl]-benzenesulfonamide]",21.1,24.4,28.1,54.3,55.0,55.3,–,–,–
"COc1ccc(-c2nc(C)nn2-c2ccc(S(N)(=O)=O)cn2)cc1 [Example 19, 6-[5-(4-methoxy-phenyl)-3-mehtyl-[1,2,4]triazole-1-yl]-pyridine-3-sulfonic acid amide]",46.9,61.0,77.6,34.8,43.1,69.5,–,–,–
"COc1ccc(-c2nc(C)nn2-c2ccc(S(N)(=O)=O)cc2)cc1OC [Example 12, 4-[5-(3,4-dimethoxy-phenyl)-3-mehtyl-[1,2,4]triazole-1-yl]-benzenesulfonamide]",27.3,34.3,37.7,30.3,55.8,70.4,–,–,–
